Measured values from the Deep4Chem optical property database.
Values belong to the compound of their own block, whether it stands above or below them.

Experiment: photoluminescence quantum yield (fraction); solvent given as SMILES

SMILES: CCCCCCCCN1c2ccccc2Sc2cc(/C=C/c3ccc(N(c4ccc(/C=C/c5ccc6c(c5)Sc5ccccc5N6CCCCCCCC)cc4)c4ccc(/C=C/c5ccc(/C=C/c6ccc(N(c7ccc(/C=C/c8ccc9c(c8)Sc8ccccc8N9CCCCCCCC)cc7)c7ccc(/C=C/c8ccc9c(c8)Sc8ccccc8N9CCCCCCCC)cc7)cc6)c6nsnc56)cc4)cc3)ccc21
photoluminescence quantum yield (in C1CCOC1): 0.024 | photoluminescence quantum yield (in CCOC(C)=O): 0.125 | photoluminescence quantum yield (in CN(C)C=O): 0.001 | photoluminescence quantum yield (in Cc1ccccc1): 0.278 | photoluminescence quantum yield (in ClC(Cl)Cl): 0.061 | photoluminescence quantum yield (in ClCCl): 0.003

SMILES: c1ccc(-c2cc(-c3ccccc3)cc(-c3ccc4c(c3)C3(c5ccccc5-4)c4ccccc4-c4c3c3c5ccccc5c(-c5cc(-c6ccccc6)cc(-c6ccccc6)c5)cc3c3ccccc43)c2)cc1 (stereo not given)
photoluminescence quantum yield (in Cc1ccccc1): 0.87

SMILES: CC1=[N+]2C(=C(c3ccc(N4CCOCC4)cc3)c3ccc(C)n3[B-]2(F)F)C=C1
photoluminescence quantum yield (in C1CCCCC1): 0.35 | photoluminescence quantum yield (in CC(=O)C(C)(C)C): 0.002 | photoluminescence quantum yield (in CC(C)=O): 0.002 | photoluminescence quantum yield (in CCCCCC): 0.388 | photoluminescence quantum yield (in CCOC(C)=O): 0.008 | photoluminescence quantum yield (in CO): 0.005 | photoluminescence quantum yield (in Cc1ccccc1): 0.32 | photoluminescence quantum yield (in ClC(Cl)Cl): 0.11

SMILES: O=C1C=CC2=Cc3ccccc3B(O)N12
photoluminescence quantum yield (in CC#N): 0.97 | photoluminescence quantum yield (in CO): 0.1 | photoluminescence quantum yield (in CS(C)=O): 0.01 | photoluminescence quantum yield (in ClC(Cl)Cl): 0.65

SMILES: COc1cc2c(cc1/C=C/C1=CC(=C(C#N)C#N)CC(C)(C)C1)c1ccccc1n2C
photoluminescence quantum yield (in C1CCOC1): 0.013 | photoluminescence quantum yield (in CC#N): 0.031 | photoluminescence quantum yield (in CCO): 0.021 | photoluminescence quantum yield (in CCOC(C)=O): 0.009 | photoluminescence quantum yield (in CN(C)C=O): 0.038 | photoluminescence quantum yield (in CS(C)=O): 0.059 | photoluminescence quantum yield (in Cc1ccccc1): 0.007 | photoluminescence quantum yield (in ClC(Cl)Cl): 0.018 | photoluminescence quantum yield (in ClCCl): 0.022

SMILES: COC1(OC)C2(Cl)c3nc4cc(-c5cccs5)ccc4nc3C1(Cl)C1C[C@H]3[C@@H](CC12)C1(Cl)c2nc4ccc(-c5cccs5)cc4nc2C3(Cl)C1(OC)OC (stereo not given in full)
photoluminescence quantum yield (in CC#N): 0.57 | photoluminescence quantum yield (in CCOC(C)=O): 0.22 | photoluminescence quantum yield (in CO): 0.49 | photoluminescence quantum yield (in Cc1ccccc1): 0.13 | photoluminescence quantum yield (in ClC(Cl)Cl): 0.35 | photoluminescence quantum yield (in ClCCl): 0.33

SMILES: CC(=O)[B-]1(C(C)=O)OC(C)=CC(c2ccc3ccccc3c2)=[O+]1
photoluminescence quantum yield (in CC#N): 0.13 | photoluminescence quantum yield (in ClC(Cl)(Cl)Cl): 0.16

SMILES: CCOC(=O)/N=c1/oc2cc(OC)cc(OC)c2cc1C#N
photoluminescence quantum yield (in ClCCl): 0.059

SMILES: CCCCN1C(=O)c2ccc3c4c(Br)cc5c6c(ccc(c7c(Br)cc(c2c37)C1=O)c64)C(=O)N(CCCC)C5=O
photoluminescence quantum yield (in ClC(Cl)Cl): 0.73

SMILES: Cc1ccc(/C=C/C(F)(F)F)c(N)c1
photoluminescence quantum yield (in C1CCOC1): 0.62

Further lines, results first:

photoluminescence quantum yield (in C1CCOC1): 0.32
SMILES: c1ccc(/C(=C(\c2ccccc2)c2cc(-c3ccc(-c4ccccc4)cc3)ccc2-c2ccc(-c3ccccc3)cc2)c2cc(-c3ccc(-c4ccccc4)cc3)ccc2-c2ccc(-c3ccccc3)cc2)cc1

photoluminescence quantum yield (in C1COCCO1): 0.71
SMILES: c1ccc(-c2ccc(-c3ccc(-c4ccccc4)cc3)cc2)cc1

photoluminescence quantum yield (in ClC(Cl)Cl): 0.33
SMILES: CN(C)c1ccc(-c2ccc(-c3cc(-c4ccccc4)c(-c4ccccc4)c(-c4ccccc4)c3-c3ccccc3)nc2)cc1

photoluminescence quantum yield (in ClCCl): 0.02
SMILES: c1ccc2c(c1)ccc1ccc3ccc4ccc5ccccc5c4c3c12

photoluminescence quantum yield (in C1CCCCC1): 0.33 | photoluminescence quantum yield (in C1COCCO1): 0.47 | photoluminescence quantum yield (in CC#N): 0.28 | photoluminescence quantum yield (in CC(C)O): 0.4 | photoluminescence quantum yield (in CCCCCC): 0.37 | photoluminescence quantum yield (in ClC(Cl)Cl): 0.42 | photoluminescence quantum yield (in c1ccccc1): 0.29
SMILES: CC1(C)CCc2c(c3ccccc3c3nc4c(nc23)c2c(c3ccccc34)OC(C)(C)CC2)O1

photoluminescence quantum yield (in ClCCl): 0.05
SMILES: N#CC(C#N)=Cc1ccc2c(c1)c1ccccc1n2-c1cccc2ccccc12

photoluminescence quantum yield (in ClCCl): 0.41
SMILES: C(=C\c1cnccn1)/c1ccc(N(c2ccccc2)c2ccccc2)cc1

photoluminescence quantum yield (in CC#N): 0.01
SMILES: C[C@]12SC(=O)C=C1c1nc(-c3ccccc3O)[nH]c1C1=CC(=O)S[C@@]12C

photoluminescence quantum yield (in ClC(Cl)Cl): 0.94
SMILES: COc1ccc(C2=Cc3ccc4ccccc4[n+]3[B-](F)(F)O2)cc1

photoluminescence quantum yield (in ClCCl): 0.16
SMILES: Cn1cc(-c2nc3ccccc3nc2C#Cc2ccccc2)c2ccccc21

photoluminescence quantum yield (in CS(C)=O): 0.381
SMILES: CCN1\C(=C/C=C/C=C/C2=[N+](CC)c3ccc4cc(Br)ccc4c3C2(C)C)C(C)(C)c2c1ccc1cc(Br)ccc21

photoluminescence quantum yield (in C1CCOC1): 0.6
SMILES: C(=C\c1cccc(/C=C/c2c3ccccc3cc3ccccc23)c1)/c1ccncc1

photoluminescence quantum yield (in ClCCl): 0.45
SMILES: F[B-]1(F)N2C=CN=CC2=[N+]2[N+]1=Cc1c(-c3ccccc3)cc(-c3cccs3)n1[B-]2(F)F

photoluminescence quantum yield (in C1CCCCC1): 0.64 | photoluminescence quantum yield (in ClC(Cl)Cl): 0.06
SMILES: Clc1cc(Cl)c([C](c2c(Cl)cc(Cl)cc2Cl)c2c(Cl)cc(-n3c4ccccc4c4ccccc43)cc2Cl)c(Cl)c1
